Experimental data from PubChem BioAssay (NCI).
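Where inhibition never reached the appropriate level, the endpoint shown equals the highest concentration tested. Otherwise, values were interpolated linearly from a five-concentration, 48-hour dose response in 96-well plates. The concentration for 50% growth inhibition is given as GI50. TGI denotes the concentration required for complete inhibition of growth.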

How the values were obtained:
Assay in all cases: NCI anticancer screen, dose series, 48 h
SF-539 CNS = system: SF-539 CNS
M14 melanoma = system: M14 melanoma
MDA-MB-231 breast = system: MDA-MB-231 breast
BT-549 breast = system: BT-549 breast
ACHN renal = system: ACHN renal
SR leukemia = system: SR leukemia
MOLT-4 leukemia = system: MOLT-4 leukemia
NCI-H460 lung = system: NCI-H460 lung
HCT-116 colon = system: HCT-116 colon
NCI-H226 lung = system: NCI-H226 lung
NCI/ADR-RES ovarian = system: NCI/ADR-RES ovarian
HL-60(TB) leukemia = system: HL-60(TB) leukemia
T-47D breast = system: T-47D breast
PC-3 prostate = system: PC-3 prostate
SK-MEL-2 melanoma = system: SK-MEL-2 melanoma
786-0 renal = system: 786-0 renal
SNB-19 CNS = system: SNB-19 CNS
OVCAR-4 ovarian = system: OVCAR-4 ovarian
SK-MEL-5 melanoma = system: SK-MEL-5 melanoma
SF-295 CNS = system: SF-295 CNS
RPMI-8226 leukemia = system: RPMI-8226 leukemia
OVCAR-5 ovarian = system: OVCAR-5 ovarian
IGROV1 ovarian = system: IGROV1 ovarian
SK-OV-3 ovarian = system: SK-OV-3 ovarian
CCRF-CEM leukemia = system: CCRF-CEM leukemia
SK-MEL-28 melanoma = system: SK-MEL-28 melanoma
UACC-257 melanoma = system: UACC-257 melanoma
U251 CNS = system: U251 CNS
OVCAR-8 ovarian = system: OVCAR-8 ovarian
SNB-75 CNS = system: SNB-75 CNS
EKVX NSCLC = system: EKVX NSCLC
NCI-H522 lung = system: NCI-H522 lung
SF-268 CNS = system: SF-268 CNS
CAKI-1 renal = system: CAKI-1 renal
LOX IMVI melanoma = system: LOX IMVI melanoma
HOP-62 NSCLC = system: HOP-62 NSCLC
KM12 colon = system: KM12 colon
MALME-3M melanoma = system: MALME-3M melanoma
COLO 205 colon = system: COLO 205 colon
MDA-MB-468 breast = system: MDA-MB-468 breast
HOP-92 NSCLC = system: HOP-92 NSCLC
HS 578T breast = system: HS 578T breast
A498 renal = system: A498 renal
DU-145 prostate = system: DU-145 prostate
OVCAR-3 ovarian = system: OVCAR-3 ovarian
TK-10 renal = system: TK-10 renal
NCI-H23 lung = system: NCI-H23 lung
HCC-2998 colon = system: HCC-2998 colon
HCT-15 colon = system: HCT-15 colon
A549 NSCLC = system: A549 NSCLC
SW-620 colon = system: SW-620 colon
UACC-62 melanoma = system: UACC-62 melanoma
MDA-MB-435 = system: MDA-MB-435
SN12C renal = system: SN12C renal
MCF7 breast = system: MCF7 breast
UO-31 renal = system: UO-31 renal
HT29 colon = system: HT29 colon
K-562 leukemia = system: K-562 leukemia
RXF 393 renal = system: RXF 393 renal

## CN1CCN(c2ccc3c(c2)nc(NNC(=O)c2cnccn2)c2cccn23)CC1
SF-539 CNS
  GI50: 645 nM
  TGI: 6830 nM
M14 melanoma
  GI50: 517 nM
  TGI: 3870 nM
MDA-MB-231 breast
  GI50: 607 nM
  TGI: 6950 nM
BT-549 breast
  GI50: 849 nM
  TGI: 13400 nM
ACHN renal
  GI50: 256 nM
  TGI: 1740 nM
SR leukemia
  GI50: 160 nM
MOLT-4 leukemia
  GI50: 244 nM
NCI-H460 lung
  GI50: 229 nM
  TGI: 4720 nM
HCT-116 colon
  GI50: 259 nM
  TGI: 5610 nM
NCI-H226 lung
  GI50: 801 nM
  TGI: 3120 nM
NCI/ADR-RES ovarian
  GI50: 829 nM
  TGI: 2970 nM
HL-60(TB) leukemia
  GI50: 175 nM
  TGI: 1650 nM
T-47D breast
  GI50: 1720 nM
  TGI: 9440 nM
PC-3 prostate
  GI50: 386 nM
  TGI: 8510 nM
SK-MEL-2 melanoma
  GI50: 1210 nM
  TGI: 6140 nM
786-0 renal
  GI50: 401 nM
  TGI: 2400 nM
SNB-19 CNS
  GI50: 812 nM
  TGI: 14600 nM
OVCAR-4 ovarian
  GI50: 605 nM
  TGI: 12900 nM
SK-MEL-5 melanoma
  GI50: 1090 nM
  TGI: 2770 nM
SF-295 CNS
  GI50: 229 nM
  TGI: 3150 nM
RPMI-8226 leukemia
  GI50: 756 nM
  TGI: 12700 nM
OVCAR-5 ovarian
  GI50: 1180 nM
  TGI: 12100 nM
IGROV1 ovarian
  GI50: 413 nM
  TGI: 10700 nM
SK-OV-3 ovarian
  GI50: 538 nM
  TGI: 5020 nM
CCRF-CEM leukemia
  GI50: 182 nM
  TGI: 1980 nM
SK-MEL-28 melanoma
  GI50: 719 nM
  TGI: 12100 nM
UACC-257 melanoma
  GI50: 2150 nM
  TGI: 7100 nM
U251 CNS
  GI50: 370 nM
  TGI: 11700 nM
OVCAR-8 ovarian
  GI50: 383 nM
  TGI: 7010 nM
SNB-75 CNS
  GI50: 2930 nM
  TGI: 18000 nM
EKVX NSCLC
  GI50: 277 nM
  TGI: 3470 nM
NCI-H522 lung
  GI50: 944 nM
  TGI: 6690 nM
SF-268 CNS
  GI50: 479 nM
  TGI: 13200 nM
CAKI-1 renal
  GI50: 463 nM
  TGI: 5270 nM
LOX IMVI melanoma
  GI50: 203 nM
  TGI: 6250 nM
HOP-62 NSCLC
  GI50: 361 nM
  TGI: 11300 nM
KM12 colon
  GI50: 359 nM
  TGI: 14900 nM
MALME-3M melanoma
  GI50: 1620 nM
  TGI: 6990 nM
COLO 205 colon
  GI50: 445 nM
  TGI: 9940 nM
MDA-MB-468 breast
  GI50: 324 nM
  TGI: 2370 nM
HOP-92 NSCLC
  GI50: 564 nM
  TGI: 5540 nM
HS 578T breast
  GI50: 3600 nM
  TGI: 70300 nM
A498 renal
  GI50: 1770 nM
  TGI: 3320 nM
DU-145 prostate
  GI50: 912 nM
  TGI: 8580 nM
OVCAR-3 ovarian
  GI50: 406 nM
  TGI: 5840 nM
TK-10 renal
  GI50: 158 nM
  TGI: 2320 nM
NCI-H23 lung
  GI50: 801 nM
  TGI: 12300 nM
HCC-2998 colon
  GI50: 453 nM
  TGI: 5800 nM
HCT-15 colon
  GI50: 109 nM
  TGI: 1790 nM
A549 NSCLC
  GI50: 768 nM
  TGI: 12100 nM
SW-620 colon
  GI50: 638 nM
  TGI: 12600 nM
UACC-62 melanoma
  GI50: 444 nM
  TGI: 2710 nM
MDA-MB-435
  GI50: 1960 nM
  TGI: 18400 nM
SN12C renal
  GI50: 583 nM
  TGI: 11800 nM
MCF7 breast
  GI50: 697 nM
  TGI: 7500 nM
UO-31 renal
  GI50: 96.4 nM
  TGI: 1510 nM
HT29 colon
  GI50: 505 nM
  TGI: 4560 nM
K-562 leukemia
  GI50: 631 nM
  TGI: 11600 nM
RXF 393 renal
  GI50: 1060 nM
  TGI: 3350 nM
